In the supplement of paper PMC13207355:

Assays:
Conditions in all cases: exposure time: 72 h
FT3469 [1] = normal neural stem cell line; assay: phenotypic distance (Euclidean, principal components) from DMSO controls (arbitrary units); higher = stronger morphological change
E34 [2] = patient-derived glioblastoma stem cells of proneural subtype; assay: as above
E13 [3] = patient-derived glioblastoma stem cells of classical subtype; assay: as above
E28 [4] = patient-derived glioblastoma stem cells of classical subtype; assay: as above
E31 [5] = patient-derived glioblastoma stem cells of proneural subtype; assay: as above
E57 [6] = patient-derived glioblastoma stem cells of mesenchymal subtype; assay: as above
E21 [7] = patient-derived glioblastoma stem cells of mesenchymal subtype; assay: as above
FT3469 [8] = assay: surviving fraction (nuclei count normalised to DMSO); higher = more cells surviving (less toxic)
E34 [9] = assay: as above
E13 [10] = assay: as above
E28 [11] = assay: as above
E31 [12] = assay: as above
E57 [13] = assay: as above
E21 [14] = assay: as above
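Wherever phenotypic distance (Euclidean, principal components) from DMSO controls is given: cell Painting imaging in 384-well plates, CellProfiler features reduced to at least 20 principal components, Euclidean distance versus same-plate DMSO vehicle wells (0.1% v/v), median over six images per well.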
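Wherever surviving fraction (nuclei count normalised to DMSO) is given: nuclei counted by high-content imaging of Hoechst-stained cells in laminin-coated 384-well plates, relative to 0.1% DMSO vehicle wells, with staurosporine as cell-death control.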

COc1cccc2c1C(=O)c1c(O)c3c(c(O)c1C2=O)C[C@@](O)(C(=O)CO)C[C@@H]3O[C@H]1C[C@H](N)[C@H](O[C@@H]2CCCCO2)[C@H](C)O1 [Pirarubicin]
Conditions	phenotypic distance	surviving fraction
E13 [3], 4.1 nM	5.19	–
E13 [3], 12.3 nM	5.1	–
E13 [3], 37 nM	4.19	–
E13 [3], 111.1 nM	5.27	–
E13 [3], 333.3 nM	5.59	–
E13 [3], 1000 nM	5.06	–
E13 [3], 3000 nM	6.07	–
E13 [10], 4.1 nM	–	0.384
E13 [10], 12.3 nM	–	0.325
E13 [10], 37 nM	–	0.263
E13 [10], 111.1 nM	–	0.0805
E13 [10], 333.3 nM	–	0.1
E13 [10], 1000 nM	–	0.0786
E13 [10], 3000 nM	–	0.0218
E21 [7], 4.1 nM	5.11	–
E21 [7], 12.3 nM	7.13	–
E21 [7], 37 nM	6.25	–
E21 [7], 111.1 nM	6.76	–
E21 [7], 333.3 nM	7.24	–
E21 [7], 1000 nM	6.47	–
E21 [7], 3000 nM	9.02	–
E21 [14], 4.1 nM	–	0.251
E21 [14], 12.3 nM	–	0.305
E21 [14], 37 nM	–	0.194
E21 [14], 111.1 nM	–	0.13
E21 [14], 333.3 nM	–	0.0649
E21 [14], 1000 nM	–	0.0703
E21 [14], 3000 nM	–	0.0202
E28 [4], 4.1 nM	4.14	–
E28 [4], 12.3 nM	4.17	–
E28 [4], 37 nM	4.19	–
E28 [4], 111.1 nM	5.37	–
E28 [4], 333.3 nM	4.96	–
E28 [4], 1000 nM	5.04	–
E28 [4], 3000 nM	4.01	–
E28 [11], 4.1 nM	–	0.322
E28 [11], 12.3 nM	–	0.276
E28 [11], 37 nM	–	0.244
E28 [11], 111.1 nM	–	0.14
E28 [11], 333.3 nM	–	0.347
E28 [11], 1000 nM	–	0.209
E28 [11], 3000 nM	–	0.0681
E31 [5], 4.1 nM	3.76	–
E31 [5], 12.3 nM	3.17	–
E31 [5], 37 nM	4.87	–
E31 [5], 111.1 nM	6.24	–
E31 [5], 333.3 nM	4.82	–
E31 [5], 1000 nM	7.62	–
E31 [5], 3000 nM	10.2	–
E31 [12], 4.1 nM	–	0.141
E31 [12], 12.3 nM	–	0.184
E31 [12], 37 nM	–	0.101
E31 [12], 111.1 nM	–	0.058
E31 [12], 333.3 nM	–	0.107
E31 [12], 1000 nM	–	0.0565
E31 [12], 3000 nM	–	0.0104
E34 [2], 4.1 nM	3.49	–
E34 [2], 12.3 nM	3.06	–
E34 [2], 37 nM	2.17	–
E34 [2], 111.1 nM	4.14	–
E34 [2], 333.3 nM	2.6	–
E34 [2], 1000 nM	3.14	–
E34 [2], 3000 nM	5.46	–
E34 [9], 4.1 nM	–	0.51
E34 [9], 12.3 nM	–	0.559
E34 [9], 37 nM	–	0.488
E34 [9], 111.1 nM	–	0.527
E34 [9], 333.3 nM	–	0.331
E34 [9], 1000 nM	–	0.488
E34 [9], 3000 nM	–	0.214
E57 [6], 4.1 nM	7.85	–
E57 [6], 12.3 nM	8.69	–
E57 [6], 37 nM	8.43	–
E57 [6], 111.1 nM	8.17	–
E57 [6], 333.3 nM	5.64	–
E57 [6], 1000 nM	5.25	–
E57 [6], 3000 nM	7.33	–
E57 [13], 4.1 nM	–	0.226
E57 [13], 12.3 nM	–	0.199
E57 [13], 37 nM	–	0.176
E57 [13], 111.1 nM	–	0.106
E57 [13], 333.3 nM	–	0.126
E57 [13], 1000 nM	–	0.122
E57 [13], 3000 nM	–	0.0208
FT3469 [1], 4.1 nM	2.41	–
FT3469 [1], 12.3 nM	2.29	–
FT3469 [1], 37 nM	3.24	–
FT3469 [1], 111.1 nM	6.3	–
FT3469 [1], 333.3 nM	5.37	–
FT3469 [1], 1000 nM	5.38	–
FT3469 [1], 3000 nM	7.66	–
FT3469 [8], 4.1 nM	–	0.631
FT3469 [8], 12.3 nM	–	0.549
FT3469 [8], 37 nM	–	0.534
FT3469 [8], 111.1 nM	–	0.31
FT3469 [8], 333.3 nM	–	0.381
FT3469 [8], 1000 nM	–	0.354
FT3469 [8], 3000 nM	–	0.144
